Experimental data as given in ChEMBL document CHEMBL5113415, “Synthesis of 10,10'-bis(trifluoromethyl) marinopyrrole A derivatives and evaluation of their antiviral activities in vitro” (Eur J Med Chem, 2022).

Columns and labels:
[1] = Cytotoxicity against […] infected with YFV-17D incubated for 7 days by CellTiter 96 luminescent cell viability assay; type: toxicity, cell-based; settings: time 7 day
[2] = tested on: Japanese encephalitis virus; test: Antiviral activity against JEV-SA14 infected in […] incubated for 7 days by CellTiter 96 luminescent cell viability assay; type: functional, organism-based; settings: 168 h
[3] = Selectivity index, ratio of CC50 for […] to IC50 for YFV-17D infected in […]; type: toxicity, cell-based; settings: read-out: Ratio CC50/IC50
[4] = Selectivity index, ratio of CC50 for […] to IC50 for JEV-SA14 infected in […]; type: toxicity, cell-based; settings: read-out: Ratio CC50/IC50
Yellow fever virus = test: Antiviral activity against YFV-17D infected in […] incubated for 7 days by CellTiter 96 luminescent cell viability assay; type: functional, organism-based; settings: 168 h
[5] = Cytotoxicity against […] infected with JEV-SA14 incubated for 7 days by CellTiter 96 luminescent cell viability assay; type: toxicity, cell-based; settings: time 7 day
Zika virus = test: Antiviral activity against ZIKV-SMGC-1 infected in […] incubated for 7 days by CellTiter 96 luminescent cell viability assay; type: functional, organism-based; settings: SMGC-1, BHK, 168 h
[6] = Cytotoxicity against […] infected with ZIKV-SMGC-1 incubated for 7 days by CellTiter 96 luminescent cell viability assay; type: toxicity, cell-based; settings: time 7 day
[7] = Selectivity index, ratio of CC50 for […] to IC50 for ZIKV-SMGC-1 infected in […]; type: toxicity, cell-based; settings: read-out: Ratio CC50/IC50
[8] = Cytotoxicity against human RD cells infected with EV71 incubated for 3 days by CellTiter 96 luminescent cell viability assay; type: toxicity, cell-based; settings: time 3 day
[9] = Selectivity index, ratio of CC50 for human RD cells to IC50 for CA16 infected in human RD cells; type: toxicity, cell-based; settings: read-out: Ratio CC50/IC50
Enterovirus A71 = test: Antiviral activity against EV71 infected in human RD cells incubated for 3 days by CellTiter 96 luminescent cell viability assay; type: functional, organism-based; settings: Enterovirus A, 71, RD, 72 h
Coxsackievirus A16 = test: Antiviral activity against CA16 infected in human RD cells incubated for 3 days by CellTiter 96 luminescent cell viability assay; type: functional, organism-based; settings: Enterovirus A, 72 h
[10] = Cytotoxicity against human RD cells infected with CA16 incubated for 3 days by CellTiter 96 luminescent cell viability assay; type: toxicity, cell-based; settings: time 3 day
[11] = Selectivity index, ratio of CC50 for human RD cells to IC50 for EV71 infected in human RD cells; type: toxicity, cell-based; settings: read-out: Ratio CC50/IC50
Dengue virus = test: Antiviral activity against DENV-NGC-1 infected in […] incubated for 7 days by CellTiter 96 luminescent cell viability assay; type: functional, organism-based; settings: NGC-1, BHK, 168 h
[12] = Selectivity index, ratio of CC50 for […] to IC50 for DENV-NGC infected in […]; type: toxicity, cell-based; settings: read-out: Ratio CC50/IC50
[13] = Cytotoxicity against […] infected with DENV-NGC-1 incubated for 7 days by CellTiter 96 luminescent cell viability assay; type: toxicity, cell-based; settings: time 7 day

Row | SMILES | CC50 at 168 h [1] [µM] | IC50 [2] [µM] | selectivity ratio [3] | selectivity ratio [4] | IC50 (Yellow fever virus) [µM] | CC50 at 168 h [5] [µM] | IC50 (Zika virus) [µM] | CC50 at 168 h [6] [µM] | selectivity ratio [7] | CC50 at 72 h [8] [µM] | selectivity ratio [9] | IC50 (Enterovirus A71) [µM] | IC50 (Coxsackievirus A16) [µM] | CC50 at 72 h [10] [µM] | selectivity ratio [11] | IC50 (Dengue virus) [µM] | selectivity ratio [12] | CC50 at 168 h [13] [µM]
1 | O=C(c1ccc(C(F)(F)F)cc1O)c1[nH]c(Cl)c(Cl)c1-n1c(C(=O)c2ccc(C(F)(F)F)cc2O)cc(Cl)c1Sc1nc[nH]n1 | 18.7 | 29.4 | 0.77 | 0.64 | 24.3 | 18.7 | 5.67 | 13.8 | 2.44 |  |  |  |  |  |  |  |  | 
2 | O=C(c1ccc(C(F)(F)F)cc1O)c1[nH]c(Cl)c(Cl)c1-n1c(C(=O)c2ccc(C(F)(F)F)cc2O)cc(Cl)c1Sc1nnnn1CCO | 12.2 |  | 1.47 |  | 8.31 |  | 6.41 | 8.01 | 1.25 | 10.8 | 6.1 | 4.77 | 2.51 | 15.3 | 2.27 |  |  | 
3 | O=C(c1ccc(C(F)(F)F)cc1O)c1[nH]c(Cl)c(Cl)c1-n1c(C(=O)c2ccc(C(F)(F)F)cc2O)cc(Cl)c1Sc1nc2ccccc2[nH]1 | 30.8 |  | 1.33 |  | 23.2 |  | 14.5 | 0.11 | 1.75 |  | 5 |  | 9.13 | 45.6 |  | 21.7 | 1.17 | 25.3
4 | Cc1nnc(Sc2c(Cl)cc(C(=O)c3ccc(C(F)(F)F)cc3O)n2-c2c(C(=O)c3ccc(C(F)(F)F)cc3O)[nH]c(Cl)c2Cl)s1 | 1.72 | 0.93 | 2.02 | 1.85 | 0.85 | 1.72 | 0.78 | 0.44 | 0.57 |  | 9.43 |  | 0.28 | 2.64 |  | 0.76 | 0.58 | 0.44
5 | O=C(c1ccc(C(F)(F)F)cc1O)c1[nH]c(Cl)c(Cl)c1-n1c(C(=O)c2ccc(C(F)(F)F)cc2O)cc(Cl)c1Sc1nc2cccnc2[nH]1 | 19.3 | 24.4 | 0.98 | 0.79 | 19.7 | 19.2 | 31.4 | 1.8 | 0.54 |  | 3.37 |  | 5.9 | 19.9 |  | 22.8 | 0.75 | 17.1
6 | O=C(c1ccc(C(F)(F)F)cc1O)c1[nH]c(Cl)c(Cl)c1-n1c(C(=O)c2ccc(C(F)(F)F)cc2O)cc(Cl)c1Sc1nc2ccccc2s1 | 1.17 | 0.7 | 1.43 | 1.68 | 0.82 | 1.18 | 0.91 | 17.1 | 0.12 |  | 11.3 |  | 0.13 | 1.46 |  | 1.04 | 0.11 | 0.11
7 | O=C(c1ccc(C(F)(F)F)cc1O)c1[nH]c(Cl)c(Cl)c1-n1c(C(=O)c2ccc(C(F)(F)F)cc2O)cc(Cl)c1Cl |  | > 200 |  |  | > 200 |  | > 0.3 |  |  | 0.12 | 24.6 | 0.06 | 0.01 | 0.25 | 1.96 | > 0.3 |  | 
8 | O=C(c1ccc(C(F)(F)F)cc1O)c1[nH]c(Cl)c(Cl)c1-n1c(C(=O)c2ccc(C(F)(F)F)cc2O)cc(Cl)c1SCc1ncccn1 |  |  |  |  |  |  |  | 0.61 |  | 0.56 | 10.4 | 0.2 | 0.08 | 0.83 | 2.78 |  |  | 
9 | O=C(c1ccc(C(F)(F)F)cc1O)c1[nH]c(Cl)c(Cl)c1-n1c(C(=O)c2ccc(C(F)(F)F)cc2O)cc(Cl)c1Sc1ncc[nH]1 | 3.75 | 1.26 | 2.93 | 2.98 | 1.28 | 3.75 | 0.97 | 3.75 | 3.87 |  |  |  |  |  |  | 1.15 | 3.26 | 3.75
10 | [N-]=[N+]=NCCCSc1c(Cl)cc(C(=O)c2ccc(C(F)(F)F)cc2O)n1-c1c(C(=O)c2ccc(C(F)(F)F)cc2O)[nH]c(Cl)c1Cl |  | 0.09 |  | 3.44 |  | 0.31 | 0.09 | 0.5 |  |  |  |  |  |  |  |  |  | 
11 | O=C(c1ccc(C(F)(F)F)cc1O)c1[nH]c(Cl)c(Cl)c1-n1c(C(=O)c2ccc(C(F)(F)F)cc2O)cc(Cl)c1SCCc1ccccn1 | 0.61 | 0.62 | 1.07 | 0.98 | 0.57 | 0.61 | 0.15 | 25.4 | 4.07 | 0.27 | 17.5 | 0.05 | 0.02 | 0.35 | 5.4 |  |  | 
12 | O=C(c1ccc(C(F)(F)F)cc1O)c1[nH]c(Cl)c(Cl)c1-n1c(C(=O)c2ccc(C(F)(F)F)cc2O)cc(Cl)c1Sc1cnccn1 | 1.22 | 0.6 | 1.45 | 2.02 | 0.84 | 1.21 | 0.25 | 1.46 | 5.85 |  | 60.9 |  | 0.18 | 11 |  | 0.29 | 5.03 | 1.46
13 | O=C(c1ccc(C(F)(F)F)cc1O)c1[nH]c(Cl)c(Cl)c1-n1c(C(=O)c2ccc(C(F)(F)F)cc2O)cc(Cl)c1SCc1cccnc1 |  |  |  |  |  |  | 0.28 |  | 1.14 | 0.57 | 8.61 | 0.27 | 0.1 | 0.86 | 2.1 | 0.24 | 1.33 | 0.32
14 | O=C(c1ccc(C(F)(F)F)cc1O)c1[nH]c(Cl)c(Cl)c1-n1c(C(=O)c2ccc(C(F)(F)F)cc2O)cc(Cl)c1SCCO | 1.45 | 0.68 | 2.41 | 2.13 | 0.6 | 1.45 | 0.07 | 1.42 | 7.13 | 1.57 |  | 0.55 |  |  | 2.85 | 0.15 | 3.34 | 0.5
15 | O=C(c1ccc(C(F)(F)F)cc1O)c1[nH]c(Cl)c(Cl)c1-n1c(C(=O)c2ccc(C(F)(F)F)cc2O)cc(Cl)c1Sc1cccc[n+]1[O-] | 8.06 |  | 2.58 |  | 3.13 |  |  |  |  |  | 7.95 |  | 1.07 | 8.51 |  | 3.68 | 2.19 | 8.06
